Each structure is given as a SMILES string.

In one experiment the target is T1, BRD9 (Homo sapiens, UniProt Q9H8M2).
T1 construct: 134-239 was cloned, expressed, and purified to homogeneity; Flag; made in house
T1 sequence (Q9H8M2 134-239 limits assumed): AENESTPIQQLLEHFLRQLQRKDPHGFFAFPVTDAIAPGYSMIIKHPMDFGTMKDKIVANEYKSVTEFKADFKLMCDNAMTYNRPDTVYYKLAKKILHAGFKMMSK
Kind of experiment: BRD9 AlphaLisa Binding Assay. On the procedure:
IC50 Measurements for Inhibitors Using BRD9 AlphaLisa Binding Assay His/Flag epitope tagged BRD9134-239 was cloned, expressed, and purified to homogeneity. […] After 20 minutes incubation at room temperature AlphaLisa Streptavidin Acceptor Beads (Perkin-A[…]) and AlphaLisa Nickel donor beads (Perkin AS 10 ID) were added to a final concentration of 15 ug/mL each.
Turning to `Cn1cc(C(=O)NC(C)(C)c2ccccc2)c2cc[nH]c2c1=O` [Example 131], the IC50 turned out to be 1.6 µM. For the molecule `CC(NC(=O)c1cn(C)c(=O)c2[nH]ccc12)C1CC1` (centres unmarked) [Example 112], the IC50 worked out at 0.46 µM. The molecule `CC=CCn1cc(C(=O)NCCCN2CCN(C)CC2)c2cc[nH]c2c1=O` [Example 9, 6-but-2-enyl-N-[3-(4-methylpiperazin-1-yl)propyl]-7-oxo-1H-pyrrolo[2,3-c]pyridine-4-carboxamide] showed an IC50 of 0.92 µM. Still for that read-out and setting: then `Cn1cc(C(=O)NCC2CN(C(=O)OC(C)(C)C)CCO2)c2cc[nH]c2c1=O` (centres unmarked) [Example 134], with 0.28 µM; and `Cn1cc(C(=O)N2CCCC2c2ccccc2)c2cc[nH]c2c1=O` (centres unmarked) [Example 85], with 0.57 µM; and `Cn1cc(C(=O)N[C@H](c2ccccc2)[C@@H](O)c2ccccc2)c2cc[nH]c2c1=O` [Example 107], with 3.4 µM. Consider `CC1CCCN(CCNC(=O)c2cn(C)c(=O)c3[nH]ccc23)C1` (centres unmarked) [Example 45, 6-methyl-N-[2-(3-methyl-1-piperidyl)ethyl]-7-oxo-1H-pyrrolo[2,3-c]pyridine-4-carboxamide], for which the IC50 came out at 6.1 µM. Same read-out and setting: then `CC=CCn1cc(C(=O)NC2(C)CCCCC2)c2cc[nH]c2c1=O` [Example 18, 6-but-2-enyl-N-(1-methylcyclohexyl)-7-oxo-1H-pyrrolo[2,3-c]pyridine-4-carboxamide], with 2.1 µM; and `Cn1cc(C(=O)N[C@H](C(N)=O)c2ccccc2)c2cc[nH]c2c1=O` [Example 90], with 0.3 µM. Still for that read-out and setting: then `Cn1cc(C(=O)N2CCNc3ccccc3C2)c2cc[nH]c2c1=O` [Example 88], with 1.5 µM. Turning to `Cn1cc(C(=O)NC(C)(C)CN2CCOCC2)c2cc[nH]c2c1=O` [Example 35, N-(1,1-dimethyl-2-morpholino-ethyl)-6-methyl-7-oxo-1H-pyrrolo[2,3-c]pyridine-4-carboxamide], the IC50 was 11 µM. On to `Cn1cc(C(=O)NCCN2CCCCC2)c2cc[nH]c2c1=O` [Example 5, 6-methyl-7-oxo-N-[2-(1-piperidyl)ethyl]-1H-pyrrolo[2,3-c]pyridine-4-carboxamide], for which the IC50 amounted to 0.79 µM. With `Cn1cc(C(=O)NC(c2ccccc2)c2ccccc2)c2cc[nH]c2c1=O` [Example 91], the IC50 is 0.2 µM. Still for that read-out and setting: then `CC(NC(=O)c1cn(C)c(=O)c2[nH]ccc12)c1ccc2c(c1)OCCO2` (centres unmarked) [Example 120], with 0.44 µM; and `Cn1cc(C(=O)NC2CCCN(C(=O)OC(C)(C)C)C2)c2cc[nH]c2c1=O` (centres unmarked) [Example 138], with 0.31 µM; and `CC(NC(=O)c1cn(C)c(=O)c2[nH]ccc12)C1CC2CCC1C2` (centres unmarked) [Example 106], with 0.24 µM. Molecule `CN(C(=O)c1cn(C)c(=O)c2[nH]ccc12)C1CCN(c2nccc(C#N)n2)CC1` [Example 146, N-[1-(4-cyanopyrimidin-2-yl)-4-piperidyl]-N,6-dimethyl-7-oxo-1H-pyrrolo[2,3-c]pyridine-4-carboxamide] came in with a half-inhibitory concentration (IC50) of 1.6 µM. In the case of `CC1CC(C)CN(CCNC(=O)c2cn(C)c(=O)c3[nH]ccc23)C1` (centres unmarked) [Example 33, N-[2-(3.5-dimethyl-1-piperidyl)ethyl]-6-methyl-7-oxo-1H-pyrrolo[2,3-c]pyridine-4-carboxamide], the IC50 worked out at 5.4 µM. Turning to `CC(C)[C@H](NC(=O)c1cn(C)c(=O)c2[nH]ccc12)C(N)=O` [Example 98], the IC50 turned out to be 0.55 µM. Same read-out and setting: then `Cn1cc(C(=O)NCc2ccc(F)cc2)c2cc[nH]c2c1=O` [Example 263], with 0.48 µM. Regarding `CN1CCCC1CCNC(=O)c1cn(C)c(=O)c2[nH]ccc12` (centres unmarked) [Example 7, 6-methyl-N-[2-(1-methylpyrrolidin-2-yl)ethyl]-7-oxo-1H-pyrrolo[2,3-c]pyridine-4-carboxamide], the IC50 came to 0.99 µM. The same measure, in the same setting: then `C[C@H](NC(=O)c1cn(C)c(=O)c2[nH]ccc12)c1ccccc1` [Example 264], with 0.44 µM.

`CC=CCn1cc(C(=O)NCCN2CCN(C)CC2)c2cc[nH]c2c1=O` [Example 12, 6-but-2-enyl-N-[2-(4-methylpiperazin-1-yl)ethyl]-7-oxo-1H-pyrrolo[2,3-c]pyridine-4-carboxamide] gave an IC50 of 0.84 µM. Molecule `C=CCn1cc(C(=O)N(C)C2CCN(c3nccc(C(F)(F)F)n3)CC2)c2cc[nH]c2c1=O` [Example 159, 6-allyl-N-methyl-7-oxo-N-[1-[4-(trioromethyl)pyrimidin-2-yl]-4-piperidyl]-1H-pyrrolo[2,3-c]pyridine-4-carboxamide] had an IC50 of 4.3 µM. On the same count and under the same terms, then `CC=CCn1cc(C(=O)NCCC2CCN(C(=O)OCc3ccccc3)C2)c2cc[nH]c2c1=O` (centres unmarked) [Example 19, benzyl 3-[2-[(6-but-2-enyl-7-oxo-1H-pyrrolo[2,3-c]pyridine-4-carbonyl)amino]ethyl]pyrrolidine-1-carboxylate], with 0.075 µM; and `Cn1cc(C(=O)NC2COCC2c2ccc(F)cc2)c2cc[nH]c2c1=O` (centres unmarked) [Example 124], with 2.9 µM. The molecule `Cn1cc(C(=O)NCC2CCOC2)c2cc[nH]c2c1=O` (centres unmarked) [Example 102] returned an IC50 of 0.86 µM.

A further experiment has as its target T2, BRD4(BD1) (Homo sapiens, UniProt O60885).
T2 construct: 42-168 was cloned, expressed, and purified to; His; made in house
Kind of experiment: BRD4 AlphaLisa Binding Assay. The text has this:
IC50 Measurements for Inhibitors Using BRD4 AlphaLisa Binding Assay
Molecule `Cn1cc(C(=O)N2CCC(n3cnc4ccccc43)CC2)c2cc[nH]c2c1=O` [Example 50, 4-[4-(benzimidazol-1-yl)piperidine-1-carbonyl]-6-methyl-1H-pyrrolo[2,3-c]pyridin-7-one] registered a half-maximal inhibitory concentration (IC50) of 16 µM. As for `C[C@@H](NC(=O)c1cn(C)c(=O)c2[nH]ccc12)C1CCCCC1` [Example 94], the IC50 is 3.1 µM. On the same count and under the same terms, then `CC(c1ccccc1)N(C)C(=O)c1cn(C)c(=O)c2[nH]ccc12` (centres unmarked) [Example 128], with 16 µM; and `Cn1cc(C(=O)N2CCC(c3ccccn3)CC2)c2cc[nH]c2c1=O` [Example 55, 6-methyl-4-[4-(2-pyridyl)piperidine-1-carbonyl]-1H-pyrrolo[2,3-c]pyridin-7-one], with 9.5 µM. `Cn1cc(C(=O)N2CCC(C(F)(F)F)CC2)c2cc[nH]c2c1=O` [Example 57, 6-methyl-4-[4-(trifluoromethyl)piperidine-1-carbonyl]-1H-pyrrolo[2,3-c]pyridin-7-one] returned a 50% inhibitory concentration (IC50) of 4.1 µM. `CC(C)c1cccc(N2CCC(N(C)C(=O)c3cn(C)c(=O)c4[nH]ccc34)CC2)c1` [Example 179, N-[1-(3-isopropylphenyl)-4-piperidyl]-N,6-dimethyl-7-oxo-1H-pyrrolo[2,3-c]pyridine-4-carboxamide] displayed an IC50 of 2.1 µM.

As for `Cn1cc(C(=O)NCC2CCOCC2)c2cc[nH]c2c1=O` [Example 101], the IC50 amounted to 17 µM. Still for that read-out and setting: then `C[C@@H](NC(=O)c1cn(C)c(=O)c2[nH]ccc12)c1ccccc1` [Example 256, (R)-6-methyl-7-oxo-N-(1-phenylethyl)-6,7-dihydro-1Hpyrrolo[2,3-c]pyridine-4-carboxamide], with 3.8 µM; and `Cc1ccccc1CCNC(=O)c1cn(C)c(=O)c2[nH]ccc12` [Example 127], with 1.2 µM.

For `Cn1cc(C(=O)NC2CCCCc3ccccc32)c2cc[nH]c2c1=O` (centres unmarked) [Example 265, 6-methyl-7-oxo-N-(6,7,8,9-tetrahydro-5Hbenzo[7]annulen-5-yl)-6,7-dihydro-1H-pyrrolo[2,3-c]pyridine-4-carboxamide], the IC50 worked out at 5.3 µM. Regarding `COc1ccc(CNC(=O)c2cn(C)c(=O)c3[nH]ccc23)cc1` [Example 261], the IC50 came to 2.7 µM. Consider `Cn1cc(C(=O)N2CCC(Cc3cccnc3)CC2)c2cc[nH]c2c1=O` [Example 46, 6-methyl-4-[4-(3-pyridylmethyl)piperidine-1-carbonyl]-1H-pyrrolo[2,3-c]pyridin-7-one], for which the IC50 is 6.4 µM. The molecule `Cn1cc(C(=O)NCc2cccs2)c2cc[nH]c2c1=O` [Example 262] returned an IC50 of 3.3 µM. The same measure, in the same setting: then `CC(NC(=O)c1cn(C)c(=O)c2[nH]ccc12)c1ccccc1F` (centres unmarked) [Example 116], with 4.3 µM; and `COC(=O)[C@@H](NC(=O)c1cn(C)c(=O)c2[nH]ccc12)C1CCCCC1` [Example 93], with 2.9 µM.

Molecule `CN1CCN(CCNC(=O)c2cn(C)c(=O)c3[nH]ccc23)CC1` [Example 32, 6-methyl-N-[2-(4-methylpiperazin-1-yl)ethyl]-7-oxo-1H-pyrrolo[2,3-c]pyridine-4-carboxamide] registered an IC50 of 9.8 µM. On to `Cn1cc(C(=O)N2CCC(C#N)CC2)c2cc[nH]c2c1=O` [Example 64, 1-(6-methyl-7-oxo-1H-pyrrolo[2,3-c]pyridine-4-carbonyl)piperidine-4-carbonitrile], for which the IC50 is 8 µM.

`Cn1cc(C(=O)NCCCN2CCOCC2)c2cc[nH]c2c1=O` [Example 31, 6-methyl-N-(3-morpholinopropyl)-7-oxo-1H-pyrrolo[2,3-c]pyridine-4-carboxamide] came in with an IC50 of 17 µM.

Molecule `CN(C(=O)c1cn(C)c(=O)c2[nH]ccc12)C1CCN(Cc2ccccc2C#N)CC1` [Example 215] yielded an IC50 of 3.8 µM. Same read-out and setting: then `Cn1cc(C(=O)NCC2CCCCN2C(=O)OC(C)(C)C)c2cc[nH]c2c1=O` (centres unmarked) [Example 132], with 13 µM; and `CC(C)C(NC(=O)c1cn(C)c(=O)c2[nH]ccc12)c1ccccc1` (centres unmarked) [Example 123], with 11 µM. Regarding `Cn1cc(C(=O)NCCc2ccccc2)c2cc[nH]c2c1=O` [Example 258], the IC50 was found to be 0.8 µM. `COc1cccc(CN2CCC(N(C)C(=O)c3cn(C)c(=O)c4[nH]ccc34)CC2)c1` [Example 222] registered an IC50 of 16 µM. Molecule `COc1ccccc1C(C)NC(=O)c1cn(C)c(=O)c2[nH]ccc12` (centres unmarked) [Example 119] showed an IC50 of 1.2 µM.

The molecule `CC(NC(=O)c1cn(C)c(=O)c2[nH]ccc12)c1ccc(Cl)cc1` (centres unmarked) [Example 126] returned an IC50 of 3.2 µM. With `CCOC(C)CNC(=O)c1cn(C)c(=O)c2[nH]ccc12` (centres unmarked) [Example 117], the IC50 is 4 µM.

The record behind these values is US10258603B2 (priority 2014, dated 2019).
